{"source": "patent EP0908457B1", "about": "“3-(1,2-benzisothiazol- and isoxazol-5-Y1)-2,4(1H,3H)-pyrimidinedione or thione and 3-(1,2-benzisothiazol- and isoxazol-5-y1)-4(3H)-pyrimidinone or thione herbicidal agents” (BASF AKTIENGESELLSCHAFT, priority 1997, dated 1999)", "key": {"[1]": {"tested_on": "Echinochloa oryzoides (Ard.) Fritsch.", "test": "Preemergence weed control under flooded paddy conditions, ECHORC (Watergrass (Calif.)); also: meaning of each grade not given here", "assay_type": "in vivo", "details": "preemergence, flooded paddy, rated three to four weeks after treatment"}, "[2]": {"tested_on": "Cyperus iria", "test": "Preemergence weed control under flooded paddy conditions, CYPIR (Rice Flatsedge); also: meaning of each grade not given here", "assay_type": "in vivo", "details": "preemergence, flooded paddy, rated three to four weeks after treatment"}, "[3]": {"tested_on": "Cyperus serotinus, Rottb.", "test": "Preemergence weed control under flooded paddy conditions, CYPSE (Flatsedge); also: meaning of each grade not given here", "assay_type": "in vivo", "details": "preemergence, rated three to four weeks after treatment"}, "[4]": {"tested_on": "Monochoria vaginalis, Presl.", "test": "Preemergence weed control under flooded paddy conditions, MOOVA (Monochoria); also: meaning of each grade not given here", "assay_type": "in vivo", "details": "preemergence, flooded paddy, rated three to four weeks after treatment"}, "[5]": {"tested_on": "Sagittaria pygmaea, L.", "test": "Preemergence weed control under flooded paddy conditions, SAGPY (Arrowhead (Pygmaea)); also: meaning of each grade not given here", "assay_type": "in vivo", "details": "preemergence, flooded paddy, rated three to four weeks after treatment"}, "[6]": {"tested_on": "Echinochloa oryzoides (Ard.) Fritsch.", "test": "Postemergence weed control under flooded paddy conditions, ECHORC (Watergrass (Calif.))", "assay_type": "in vivo", "details": "rated three to four weeks after treatment"}, "[7]": {"tested_on": "Cyperus iria", "test": "Postemergence weed control under flooded paddy conditions, CYPIR (Rice Flatsedge)", "assay_type": "in vivo", "details": "rated three to four weeks after treatment"}, "[8]": {"tested_on": "Cyperus serotinus, Rottb.", "test": "Postemergence weed control under flooded paddy conditions, CYPSE (Flatsedge)", "assay_type": "in vivo", "details": "rated three to four weeks after treatment"}, "[9]": {"tested_on": "Monochoria vaginalis, Presl.", "test": "Postemergence weed control under flooded paddy conditions, MOOVA (Monochoria)", "assay_type": "in vivo", "details": "rated three to four weeks after treatment"}, "[10]": {"tested_on": "Sagittaria pygmaea, L.", "test": "Postemergence weed control under flooded paddy conditions, SAGPY (Arrowhead (Pygmaea))", "assay_type": "in vivo", "details": "rated three to four weeks after treatment"}, "[11]": {"tested_on": "Oryza sativa, (L.) Tebonnet", "test": "Rice tolerance to post-transplant applications under flooded paddy conditions (Example 187), ORYSAT (Rice, Tebonnet)", "details": "rated three to four weeks after treatment"}, "[12]": {"tested_on": "Oryza sativa, (L.) Tebonnet", "test": "Rice tolerance to post-transplant applications under flooded paddy conditions (Example 188), ORYSAT (Rice, Tebonnet)", "details": "rated three to four weeks after treatment"}}, "data": [{"smiles": "Cn1c(C(F)(F)F)cc(=O)n(-c2ccc3snc(-c4ccccc4)c3c2)c1=O", "note": "[Example 4, 1-Methyl-3-(3-phenyl-1,2-benzisothiazol-5-yl)-6-(trifluoromethyl)-2,4(1H,3H)-pyrimidinedione]", "values": [{"measurement": "herbicidal effect rating, ECHORC", "setting": "[1]; 0.0313 kg/ha", "result": 9.0}, {"measurement": "herbicidal effect rating, ECHORC", "setting": "[1]; 0.0625 kg/ha", "result": 9.0}, {"measurement": "herbicidal effect rating, ECHORC", "setting": "[1]; 0.1250 kg/ha", "result": 9.0}, {"measurement": "herbicidal effect rating, ECHORC", "setting": "[1]; 0.2500 kg/ha", "result": 9.0}, {"measurement": "herbicidal effect rating, ECHORC", "setting": "[1]; 0.5000 kg/ha", "result": 9.0}, {"measurement": "herbicidal effect rating, CYPIR", "setting": "[2]; 0.0313 kg/ha", "result": 9.0}, {"measurement": "herbicidal effect rating, CYPIR", "setting": "[2]; 0.0625 kg/ha", "result": 9.0}, {"measurement": "herbicidal effect rating, CYPIR", "setting": "[2]; 0.1250 kg/ha", "result": 9.0}, {"measurement": "herbicidal effect rating, CYPIR", "setting": "[2]; 0.2500 kg/ha", "result": 9.0}, {"measurement": "herbicidal effect rating, CYPIR", "setting": "[2]; 0.5000 kg/ha", "result": 9.0}, {"measurement": "herbicidal effect rating, CYPSE", "setting": "[3]; 0.0625 kg/ha", "result": 2.0}, {"measurement": "herbicidal effect rating, CYPSE", "setting": "[3]; 0.1250 kg/ha", "result": 9.0}, {"measurement": "herbicidal effect rating, CYPSE", "setting": "[3]; 0.2500 kg/ha", "result": 9.0}, {"measurement": "herbicidal effect rating, CYPSE", "setting": "[3]; 0.5000 kg/ha", "result": 9.0}, {"measurement": "herbicidal effect rating, MOOVA", "setting": "[4]; 0.0313 kg/ha", "result": 9.0}, {"measurement": "herbicidal effect rating, MOOVA", "setting": "[4]; 0.0625 kg/ha", "result": 9.0}, {"measurement": "herbicidal effect rating, MOOVA", "setting": "[4]; 0.1250 kg/ha", "result": 9.0}, {"measurement": "herbicidal effect rating, MOOVA", "setting": "[4]; 0.2500 kg/ha", "result": 9.0}, {"measurement": "herbicidal effect rating, MOOVA", "setting": "[4]; 0.5000 kg/ha", "result": 9.0}, {"measurement": "herbicidal effect rating, SAGPY", "setting": "[5]; 0.0313 kg/ha", "result": 2.0}, {"measurement": "herbicidal effect rating, SAGPY", "setting": "[5]; 0.0625 kg/ha", "result": 2.0}, {"measurement": "herbicidal effect rating, SAGPY", "setting": "[5]; 0.1250 kg/ha", "result": 6.0}, {"measurement": "herbicidal effect rating, SAGPY", "setting": "[5]; 0.2500 kg/ha", "result": 9.0}, {"measurement": "herbicidal effect rating, SAGPY", "setting": "[5]; 0.5000 kg/ha", "result": 9.0}, {"measurement": "herbicidal effect rating, ECHORC", "setting": "[6]; Rate 0.0313 kg/ha", "result": 7.0}, {"measurement": "herbicidal effect rating, ECHORC", "setting": "[6]; Rate 0.0625 kg/ha", "result": 9.0}, {"measurement": "herbicidal effect rating, ECHORC", "setting": "[6]; Rate 0.1250 kg/ha", "result": 9.0}, {"measurement": "herbicidal effect rating, ECHORC", "setting": "[6]; Rate 0.2500 kg/ha", "result": 9.0}, {"measurement": "herbicidal effect rating, ECHORC", "setting": "[6]; Rate 0.5000 kg/ha", "result": 9.0}, {"measurement": "herbicidal effect rating, CYPIR", "setting": "[7]; Rate 0.0313 kg/ha", "result": 8.0}, {"measurement": "herbicidal effect rating, CYPIR", "setting": "[7]; Rate 0.0625 kg/ha", "result": 9.0}, {"measurement": "herbicidal effect rating, CYPIR", "setting": "[7]; Rate 0.1250 kg/ha", "result": 9.0}, {"measurement": "herbicidal effect rating, CYPIR", "setting": "[7]; Rate 0.2500 kg/ha", "result": 9.0}, {"measurement": "herbicidal effect rating, CYPIR", "setting": "[7]; Rate 0.5000 kg/ha", "result": 9.0}, {"measurement": "herbicidal effect rating, CYPSE", "setting": "[8]; Rate 0.0313 kg/ha", "result": 2.0}, {"measurement": "herbicidal effect rating, CYPSE", "setting": "[8]; Rate 0.0625 kg/ha", "result": 4.0}, {"measurement": "herbicidal effect rating, CYPSE", "setting": "[8]; Rate 0.1250 kg/ha", "result": 7.0}, {"measurement": "herbicidal effect rating, CYPSE", "setting": "[8]; Rate 0.2500 kg/ha", "result": 7.0}, {"measurement": "herbicidal effect rating, CYPSE", "setting": "[8]; Rate 0.5000 kg/ha", "result": 9.0}, {"measurement": "herbicidal effect rating, MOOVA", "setting": "[9]; Rate 0.0313 kg/ha", "result": 8.0}, {"measurement": "herbicidal effect rating, MOOVA", "setting": "[9]; Rate 0.0625 kg/ha", "result": 9.0}, {"measurement": "herbicidal effect rating, MOOVA", "setting": "[9]; Rate 0.1250 kg/ha", "result": 9.0}, {"measurement": "herbicidal effect rating, MOOVA", "setting": "[9]; Rate 0.2500 kg/ha", "result": 9.0}, {"measurement": "herbicidal effect rating, MOOVA", "setting": "[9]; Rate 0.5000 kg/ha", "result": 9.0}, {"measurement": "herbicidal effect rating, SAGPY", "setting": "[10]; Rate 0.0313 kg/ha", "result": 3.0}, {"measurement": "herbicidal effect rating, SAGPY", "setting": "[10]; Rate 0.0625 kg/ha", "result": 2.0}, {"measurement": "herbicidal effect rating, SAGPY", "setting": "[10]; Rate 0.1250 kg/ha", "result": 6.0}, {"measurement": "herbicidal effect rating, SAGPY", "setting": "[10]; Rate 0.2500 kg/ha", "result": 9.0}, {"measurement": "herbicidal effect rating, SAGPY", "setting": "[10]; Rate 0.5000 kg/ha", "result": 9.0}, {"measurement": "herbicidal effect rating, ORYSAT (rice tolerance)", "setting": "[11]; 0.0313 kg/ha", "result": 4.0}, {"measurement": "herbicidal effect rating, ORYSAT (rice tolerance)", "setting": "[11]; 0.0625 kg/ha", "result": 7.0}, {"measurement": "herbicidal effect rating, ORYSAT (rice tolerance)", "setting": "[11]; 0.1250 kg/ha", "result": 7.0}, {"measurement": "herbicidal effect rating, ORYSAT (rice tolerance)", "setting": "[11]; 0.2500 kg/ha", "result": 8.0}, {"measurement": "herbicidal effect rating, ORYSAT (rice tolerance)", "setting": "[11]; 0.5000 kg/ha", "result": 8.0}, {"measurement": "herbicidal effect rating, ORYSAT (rice tolerance)", "setting": "[12]; Rate 0.0313 kg/ha", "result": 3.0}, {"measurement": "herbicidal effect rating, ORYSAT (rice tolerance)", "setting": "[12]; Rate 0.0625 kg/ha", "result": 4.0}, {"measurement": "herbicidal effect rating, ORYSAT (rice tolerance)", "setting": "[12]; Rate 0.1250 kg/ha", "result": 7.0}, {"measurement": "herbicidal effect rating, ORYSAT (rice tolerance)", "setting": "[12]; Rate 0.2500 kg/ha", "result": 8.0}, {"measurement": "herbicidal effect rating, ORYSAT (rice tolerance)", "setting": "[12]; Rate 0.5000 kg/ha", "result": 8.0}]}]}
